The values that follow come from PMC11054303, “Design and Synthesis of Novel N-Benzylidene Derivatives of 3-Amino-4-imino-3,5-dihydro-4H-chromeno[2,3-d]pyrimidine under Microwave, In Silico ADME Predictions, In Vitro Antitumoral Activities and In Vivo Toxicity” (Pharmaceuticals, 2024).

“Also recorded” adds a separate entry of the source.

Assay [1] has as its system Store-Operated Ca^+2 Entry (SOCE). Put plainly: Store-operated calcium entry (SOCE) assay in HEK293 cells. The class given is cell-based, human. The settings on record: 1.25 to 50 μM added 5 min before recording, 2 μM thapsigargin, then 1.8 mM Ca2+. The procedure:
(§1) Thapsigargin (TG), an inhibitor of endoplasmic reticulum Ca^+2-ATPase, is used to deplete intracellular calcium stores in a Ca^+2-free solution and therefore activate SOCE. […] In the context of a preliminary exploration of the functional effects of our molecules of interest and in the absence of a significant inhibition at a low concentration of compound 10h on the reference cell line we used (HEK293) no further exploration of the modulatory effect of this compound on cancer cell lines was initiated.
The HEK293 cell line was maintained in DMEM High Glucose with Sodium Pyruvate ([…]) and antibiotics (1% of penicillin/streptomycin) in a humidified incubator at 37 °C, supplemented with 5% of CO2.
For Ca^2+ measurement experiments, HEK293 cells were seeded overnight into 96 wells of a black clear bottom plate (Corning Ref: 3603) at […] in 100 µL culture medium. The resting medium was aspirated and cells were loaded with Fura-2 acetoxymethyl ester (Fura-2 QBT™) fluorochrome. […]
Intracellular calcium levels were evaluated by recording changes in the fluorescence of the dual-wavelength fluorescent calcium-sensitive dye Fura-2AM using the plate reader FlexStation 3™ (Molecular Devices, Sunnyvale, CA, USA). Dual excitation wavelength capability permits ratiometric measurements of Fura-2AM peak fluorescence emission at 510 nm after excitations at 340 and 380. […]

For another assay, the system named is PC3. The experiment in a line: Antiproliferative assay, PC3. The class given is cell-based, human. The procedure:
The potential antiproliferative activity of these novel 3-(N-phenylmethyliden)amino-4-imino-3,5-dihydro-4H-chromeno[2,3-d]pyrimidine 10(a-i) and 10-(N-phenylmethyliden)amino-11-imino-11H-naphto[1′,2′:5,6]pyrano[2,3-d]pyrimidine 10(j-l) was evaluated in a panel of eight tumoral cell lines and in diploid skin fibroblasts used as normal cell lines for control. For these antitumor assays, chosen cell lines represent diverse types of human cancer, which are, respectively, human hepatocellular carcinoma (Huh7 D12), human colon adenocarcinoma (Caco2), human breast adenocarcinoma (MDA-MB231), MDA-MB468 for human breast carcinoma which correspond to the Triple Negative Breast Cancer (TNBC), human colon carcinoma (HCT116), PC3 as cell line initiated from bone metastasis of grade IV prostatic adenocarcinoma from a person, MCF7 as breast cancer line isolated from a person and PANC1, as human pancreatic cancer cell line. The potential antiproliferative activity was preliminarily evaluated in vitro at a 25 μM single dose.
The IC50 was calculated from the full dose-response curve and used as a parameter for the antiproliferative activity of the new compounds.
Skin diploid fibroblastic cells were provided by BIOPREDIC International Company (Rennes, France). Huh-7D12 (Ref ECACC: 01042712), Caco2 (Ref ECACC: 86010202), MDA-MB-231 (Ref ECACC: 92020424), MDA-MB-468, HCT-116 (Ref ECACC: 91091005), PC3 (Ref ECACC: 90112714), and MCF7 cell lines were obtained from the ECACC collection. PANC1 cell lines, a generous gift of LBAI Inserm 1227 (Brest, France). Cells were grown according to ECACC recommendations in DMEM for Huh-D12, MDA-MB-231, MDA-MB-468 and fibroblast, in EMEM for Caco2, in McCoy’s for HCT-116 and RPMI for PC3 at 37 °C and 5% CO2. All culture media with 10% of FBS, 1% of penicillin-streptomycin and 2 mM glutamine.
Chemicals were solubilized in DMSO at a concentration of 10 mM (stock solution) and diluted in a culture medium to the desired final concentrations. […] The toxicity test of the chemicals on these cells was as follows: 2 × 10^3 cells for HCT-116 cells or 4 × 10^3 for the other cells were seeded in 96-multi-well plates in triplicate and left for 24 h for attachment, spreading and growing. Then, cells were exposed for 48 h to increasing concentrations of chemicals, ranging from 0.1 μM to 25 μM, in a final volume of 120 μL of culture medium. After 48 h of treatment, cells were washed in PBS and fixed in a cooled 90% ethanol/5% acetic acid solution for 20 min. The nuclei were stained with Hoechst 3342 (B2261 Merck Sigma-Aldrich) and counted. Image acquisition and analysis were performed using automated imaging analysis with a Cellomics Arrayscan VTI/HCS Reader (Thermo/Scientific, Waltham, MA, USA). The survival percentages were calculated as the percentage of cell number after chemical treatment over cell number after DMSO treatment. The IC50 was graphically determined.

In assay [2] the test system is Store-Operated Ca^+2 Entry (SOCE). Put plainly: SOCE and Ca2+ release assay in B cell line (PLP cell line). The assay is classed as cell-based. The settings on record: same protocol. As for the experimental part:
as §1

Regarding `COc1cccc2c1Oc1ncn(/N=C/c3ccccc3O)c(=N)c1C2` [10h, (3E) 3-N-(2-Hydroxyphenylmethylidene)amino-4-imino-9-methoxy-3,5-dihydro-4H-chromeno[2,3-d]pyrimidine], the “inhibition of SOCE” value in assay [1] is on record as “dose-dependent inhibition; also recorded: partially inhibits SOCE in HEK293 cells in a dose-dependent manner; also recorded: dose-dependent effect but with a minor inhibitory effect on SOCE at low concentrations”. In the assay on PC3 (Homo sapiens, PC-3, 48 h incubation, average of three assays, standard error ± 0.5 μM), it took 0.24 µM to reach half-maximal inhibition (IC50). In addition, the “Selectivity Index (SI) PC3” value with PC3 (SI = IC50 fibroblasts/IC50 on PC3) was greater than 104.2. The “inhibitory effects on SOCE and Ca2+ release” value in assay [2] was “without detecting any inhibitory effects on SOCE and Ca^2+ release; also recorded: no inhibitory effects on SOCE and Ca^+2 release”.
